Like-named read-outs stand apart in the source and are kept apart here.
What was measured:
[1] = Distribution of clomethiazole between glyceryl monooleate cubic phase bilayer and water phase (water or citrate buffer); assay type: physicochemical; settings: 120 h; for Kbl/w, eq. (4) / kbl/w, eq. (4): fw=0.4
Experimental: The distribution of a substance X between lipids and water in the system is depicted by the following distribution coefficient.
Kbilayer/water=Kbl/w=[X]lipid/[X]water (1),
If both the water phase and the cubic phase are analyzed with reference to their content of the substance X the following distribution coefficient can be determined Kcubic phase/water=KQ/w=[X]Q/[X]w (3), in which [X]Q is the concentration of X in the cubic phase. A relationship between Kbl/w and KQ/w can be derived if the volumetric portion of water in the cubic phase as well as the concentration of X in the water domain of the cubic phase are known. The former can be determined by means of X-ray diffraction. If it is assumed that the concentration of X in the water domain in the cubic phase is [X]w, i.e. the same as in the water phase, the following relationship can be obtained […]
Kbl/w={KQ/w−fw}/{1−fw} (4) in which fw is a volumetric portion of water in the cubic phase.
Clomethiazole (CMZ) is a drug which at a low pH exists in a charged state and at a high pH in a neutral stage. Glyceryl monooleate (Grindsted/Danisco A/S, Brabrand, Denmark), 0.74 ml, was added to each of six vials. Then 0.3 ml water was added to three of the vials, and 0.3 ml citrate buffer, pH 3.4, was added to the remaining three vials. The cubic phase was allowed to be formed overnight. Then 1.0 ml of solutions with different concentrations of CMZ were added to each of the vials.
The contents were analyzed after 120 h with reference to CMZ in the water phase as well as the cubic phase. In this example the constants were vlipid=0.74 ml, v1=0.3 ml, v2=1.0 ml, and fw=0.4. The distribution coefficients Kbl/w were calculated by means of the equations (2) and (4).

[2] = Distribution of lidocaine, cubic phase/water, simultaneous addition of all the water solution; assay type: physicochemical; settings: for [X]w: 24 h; for [X]w / Kbl/w: simultaneous addition
Experimental: wherein [X]lipid/[X]water is the concentration of a substance X in the lipid and the water portion of the system, respectively. In order to be able to determine Kbl/w several methods can be applied. […] Kbl/w ={[…] which [X]w is the concentration of X in the water phase at equilibrium. […] Then 0.5 ml of the respective buffer solution was added to the vials.

[3] = Distribution of lidocaine, cubic phase/water, water solution added after the cubic phase has been formed; assay type: physicochemical; settings: for [X]w: cubic phase formed 24 h at 37° C., then further 24 h
[4] = for [X]w: 72 h; for Kbl/w: equation 2, 72 h
Text: wherein [X]lipid/[X]water is the concentration of a substance X in the lipid and the water portion of the system, respectively. In order to be able to determine Kbl/w several methods can be applied. If vlipid is the lipid volume, v1 is the volume of water solution without the substance X, and v2 is the volume of water solution with the substance X in a concentration of [X]0 mol/liter, the distribution coefficient can be expressed as
Kbl/w ={v2([X]0−[X]w)/[X]w−v1}/vlipid (2),
in which [X]w is the concentration of X in the water phase at equilibrium. Equation 2 can be used if only the water phase and not the lipid phase is analyzed with reference to its content of X.
Glyceryl monooleate, 2 ml, was weighed into three vials, 6 ml of a water solution with 0.033, 0.067, or 0.10 mol NaCl per liter then being added to one of the three vials.
After 72 h the NaCl contents in the three vials were determined by means of conductometrical analysis of the water phases. In this example the constants were vlipid=2 ml, v1=0 ml, and v2=6 ml. The distribution coefficient Kbl/w was calculated by means of equation 2.

[5] = citrate buffer pH 3.4, system I, [X]0 0.28 mg/ml
[6] = citrate buffer pH 3.4, system II, [X]0 1.5 mg/ml
[7] = citrate buffer pH 3.4, system III, [X]0 3.0 mg/ml
[8] = water, system I, [X]0 0.28 mg/ml
[9] = water, system II, [X]0 1.5 mg/ml
[10] = water, system III, [X]0 3.0 mg/ml

Cc1ncsc1CCCl [Clomethiazole]
Kbl/w, eq. (2) [1, 5]: 28.4
[X]w, concentration in the water phase at equilibrium [1, 5]: 0.014 mg/mL
citrate, [X]Q, concentration in the cubic phase [1, 5]: 0.243 mg/mL
Kbl/w, eq. (4) [1, 5]: 28.2
Kbl/w, eq. (2) [1, 6]: 32.0
[X]w, concentration in the water phase at equilibrium [1, 6]: 0.067 mg/mL
citrate, [X]Q, concentration in the cubic phase [1, 6]: 1.188 mg/mL
Kbl/w, eq. (4) [1, 6]: 28.9
Kbl/w, eq. (2) [1, 7]: 31.5
[X]w, concentration in the water phase at equilibrium [1, 7]: 0.136 mg/mL
citrate, [X]Q, concentration in the cubic phase [1, 7]: 2.366 mg/mL
Kbl/w, eq. (4) [1, 7]: 28.3
Kbl/w, eq. (2) [1, 8]: 57.0
[X]Q, concentration in the cubic phase [1, 8]: 0.243 mg/mL
[X]w, concentration in the water phase at equilibrium [1, 8]: 0.0072 mg/mL
kbl/w, eq. (4) [1, 8]: 55.6
Kbl/w, eq. (2) [1, 9]: 57.9
[X]Q, concentration in the cubic phase [1, 9]: 1.286 mg/mL
[X]w, concentration in the water phase at equilibrium [1, 9]: 0.038 mg/mL
kbl/w, eq. (4) [1, 9]: 55.7
Kbl/w, eq. (2) [1, 10]: 57.9
[X]Q, concentration in the cubic phase [1, 10]: 2.463 mg/mL
[X]w, concentration in the water phase at equilibrium [1, 10]: 0.076 mg/mL
kbl/w, eq. (4) [1, 10]: 53.3

CCN(CC)CC(=O)Nc1c(C)cccc1C [Lidocaine]
Kbl/w(charged) ([2]; charged form, from pH 4): 0.7
[X]w ([2]; pH 4, [X]0 1.00 mg/ml): 0.68 mg/mL
Kbl/w ([2]; pH 4, equation 2, 24 h): 0.7
[X]w ([2]; pH 7, [X]0 1.00 mg/ml): 0.21 mg/mL
Kbl/w ([2]; pH 7, equation 2, 24 h): 8.9
[X]w ([2]; pH 10, [X]0 1.00 mg/ml): 0.073 mg/mL
Kbl/w ([2]; pH 10, equation 2, 24 h): 31.2
Kbl/w(uncharged) ([2]; uncharged form, from pH 10): 31.2
[X]w ([3]; pH 4, [X]0 1.00 mg/ml): 0.66 mg/mL
Kbl/w ([3]; pH 4, equation 2, solution added after cubic phase formed): 0.8
[X]w ([3]; pH 7, [X]0 1.00 mg/ml): 0.22 mg/mL
Kbl/w ([3]; pH 7, equation 2, solution added after cubic phase formed): 8.4
[X]w ([3]; pH 10, [X]0 1.00 mg/ml): 0.073 mg/mL
Kbl/w ([3]; pH 10, equation 2, solution added after cubic phase formed): 31.2

[Cl-].[Na+] [NaCl]
[X]w ([4]; [X]0 0.033 mol/liter): 0.036 mol/L
Kbl/w ([4]; [X]0 0.033 mol/liter): −0.25
[X]w ([4]; [X]0 0.067 mol/liter): 0.071 mol/L
Kbl/w ([4]; [X]0 0.067 mol/liter): −0.17
[X]w ([4]; [X]0 0.100 mol/liter): 0.106 mol/L
Kbl/w ([4]; [X]0 0.100 mol/liter): −0.17

From patent publication US20020006436A1, “USE OF A LIQUID CRYSTALLINE PHASE FOR DETERMINING THE DISTRIBUTION OF A CHEMICAL SUBSTANCE BETWEEN A HYDROPHOBIC AND A HYDROPHILIC ENVIRONMENT” (priority 1996, published 2002)
